Patent publication US20230159469A1, “NOVEL PHTHALAZINE DERIVATIVE HAVING ECTONUCLOEOTIDE PYROPHOSPHATASE/PHOSPHODIESTE RASE INHIBITORY ACTIVITY, AND USE THEREOF” (TXINNO BIOSCIENCE INC., priority 2020, published 2023)
Structures can show the parent of a compound that is named as a salt.

Biological target: T1, human recombinant ENPP1 (Homo sapiens, UniProt P22413)
T1 construct: purchased R & D systems
T1 sequence (P22413 1-925): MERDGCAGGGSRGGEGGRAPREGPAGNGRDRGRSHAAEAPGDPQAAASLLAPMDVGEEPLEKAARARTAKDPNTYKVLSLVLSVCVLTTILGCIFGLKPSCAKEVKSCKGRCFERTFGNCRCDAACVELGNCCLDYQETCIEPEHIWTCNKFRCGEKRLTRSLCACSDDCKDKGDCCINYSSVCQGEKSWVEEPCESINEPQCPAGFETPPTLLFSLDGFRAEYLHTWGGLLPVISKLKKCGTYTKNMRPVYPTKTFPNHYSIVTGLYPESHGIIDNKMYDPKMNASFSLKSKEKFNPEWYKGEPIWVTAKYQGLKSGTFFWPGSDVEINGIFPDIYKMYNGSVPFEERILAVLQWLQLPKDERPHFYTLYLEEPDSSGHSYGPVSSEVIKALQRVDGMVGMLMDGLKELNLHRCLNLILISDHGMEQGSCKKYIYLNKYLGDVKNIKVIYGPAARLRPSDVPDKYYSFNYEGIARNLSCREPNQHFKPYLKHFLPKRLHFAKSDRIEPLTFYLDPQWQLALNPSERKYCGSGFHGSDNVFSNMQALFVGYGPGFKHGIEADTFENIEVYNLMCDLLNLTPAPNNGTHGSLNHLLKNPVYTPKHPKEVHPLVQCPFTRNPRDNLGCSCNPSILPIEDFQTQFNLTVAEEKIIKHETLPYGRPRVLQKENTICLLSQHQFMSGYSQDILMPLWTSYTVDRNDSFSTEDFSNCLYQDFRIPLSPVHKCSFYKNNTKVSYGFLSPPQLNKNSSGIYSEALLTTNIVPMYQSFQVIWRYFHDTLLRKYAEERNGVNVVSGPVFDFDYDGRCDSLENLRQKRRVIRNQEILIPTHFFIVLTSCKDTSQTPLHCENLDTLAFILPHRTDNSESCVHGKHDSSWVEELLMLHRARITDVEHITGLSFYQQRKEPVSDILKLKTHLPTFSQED
Assay: ENPP1 enzyme assay with cGAMP substrate (AMP-Glo luminescence)
Format: biochemical
Conditions: human recombinant ENPP1 3 ng/reaction, cGAMP 5 μM, 37° C. 90 minutes, read-out: Enzymatic activity (ENPP1 IC50)
Summary of the method: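 Human ENPP1 hydrolysis of 5 μM cGAMP was run for 90 min at 37° C in 50 mM Tris pH 8.5, 250 mM NaCl, 0.5 mM CaCl2, 1 μM ZnCl2, 5% glycerol, 1% DMSO. AMP product was quantified by AMP-Glo luminescence; IC50 came from 3-parameter fits of % residual activity, averaged over at least two runs.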

Structure (SMILES) | IC50 [µM]
NS(=O)(=O)Nc1ccc(Cc2n[nH]c(=O)c3ccccc23)cc1C(F)(F)F [Example 192, N-(2-(trifluorobenzylmethyl)-4-((4-oxo-3,4-dihydrophthalazin-1-yl)methyl)phenyl)sulfamide hydrochloride] | < 1
NS(=O)(=O)Nc1ccc(-c2n[nH]c(=O)c3ccccc23)cc1 [Compound No. 91, N-(4-(4-oxo-3,4-dihydrophthalazin-1-yl)phenyl)sulfamide] | 1 to 10
CC(C)(C)OC(=O)NS(=O)(=O)Nc1cccc(-c2n[nH]c(=O)c3ccccc23)c1 [Compound No. 60, tert-butyl (N-(3-(4-oxo-3,4-dihydrophthalazin-1-yl)phenyl)sulfamoyl)carbamate] | > 10
CC(NS(N)(=O)=O)c1ccc(-c2n[nH]c(=O)c3ccccc23)cc1 (stereo not drawn) [Compound No. 123, N-(1-(4-(4-oxo-3,4-dihydrophthalazin-1-yl)phenyl)ethyl)sulfamide hydrochloride] | < 1
NS(=O)(=O)NCc1ccc(-c2nn(Cc3ccccc3)c(=O)c3ccccc23)cc1 [Compound No. 101, N-(4-(3-benzyl-4-oxo-3,4-dihydrophthalazin-1-yl)benzyl)sulfamide hydrochloride] | 1 to 10
COc1cc2c(N3CCC(CNS(N)(=O)=O)CC3)n[nH]c(=O)c2cc1OC [Compound No. 139, N-((1-(6,7-dimethoxy-4-oxo-3,4-dihydrophthalazin-1-yl)piperidin-4-yl)methyl)sulfamide hydrochloride] | < 1
O=c1[nH]nc(-c2ccccc2)c2ccccc12 [Compound No. 1, 4-phenylphthalazin-1(2H)-one] | 1 to 10
CNc1ccc(Cc2n[nH]c(=O)c3cc(OC)c(OC)cc23)cc1 [Example 163, 6,7-dimethoxy-4-(4-(methylamino)benzyl)phthalazin-1(2H) -one hydrochloride] | > 10
COc1cc2c(N3CCC(CN)CC3)n[nH]c(=O)c2cc1OC [Compound No. 135, 4-(4-(aminomethyl)piperidin-1-yl)-6,7-dimethoxyphthalazin-1(2H)-one hydrochloride] | > 10
COc1cc2c(Nc3cccc(NS(N)(=O)=O)c3)nn(C)c(=O)c2cc1OC [Compound No. 141, N-(3-(6,7-dimethoxy-3-methyl-4-oxo-3,4-dihydrophthalazin-1-yl)-amino)phenyl)sulfamide hydrochloride] | 1 to 10
COc1cc2c(-c3ccc4c(c3)CN(S(N)(=O)=O)CC4)n[nH]c(=O)c2cc1OC [Compound No. 122, 7-(6,7-dimethoxy-4-oxo-3,4-dihydrophthalazin-1-yl)-3,4-dihydroisoquinoline-2(1H)-sulfamide] | < 1
CCn1nc(-c2ccc(CNC(=O)OC(C)(C)C)cc2)c2ccccc2c1=O [Compound No. 10, tert-butyl (4-(3-ethyl-4-oxo-3,4-dihydrophthalazin-1-yl)benzyl)carbamate] | > 10
Cn1nc(-c2ccc(CN)cc2)c2ccccc2c1=O [Compound No. 37, 4-(4-aminomethyl)phenyl)-2-methylphthalazin-1(2H)-one hydrochloride] | < 1
COc1cc2c(Cc3cccc(N)c3)n[nH]c(=O)c2cc1OC [Example 156, 4-(3-aminobenzyl)-6,7-dimethoxyphthalazin-1(2H)-one hydrochloride] | > 10
Cn1nc(-c2cccc(CNS(N)(=O)=O)c2)c2ccccc2c1=O [Compound No. 94, N-(3-(3-methyl-4-oxo-3,4-dihydrophthalazin-1-yl)benzyl)sulfamide trifluoroacetic acid] | < 1
COc1cc2c(Cc3cccc(NS(N)(=O)=O)c3)nn(C)c(=O)c2cc1OC [Example 179, N-(3-((6,7-dimethoxy-3-methyl-4-oxo-3,4-dihydrophthalazin-1-yl)methyl)phenyl)sulfamide hydrochloride] | > 10
NCc1cccc(-c2n[nH]c(=O)c3ccccc23)c1 [Compound No. 33, 4-(3-(aminomethyl)phenyl)phthalazin-1(2H)-one hydrochloride] | > 10
COc1cc2c(N3CCC(CNC(=O)OC(C)(C)C)CC3)n[nH]c(=O)c2cc1OC [Compound No. 133, tert-butyl ((1-(6,7-dimethoxy-4-oxo-3,4-dihydrophthalazin-1-yl)piperidin-4-yl)methyl)carbamate] | > 10
